Data taken from patent publication US10106529B2, “Compounds that modulate intracellular calcium” (CalciMedica, Inc., priority 2011, dated 2018).

Legend:
[1] = biological target: T1, Orai1/STIM1 (Homo sapiens, UniProt Q96D31); test: Fluorescence-based assay of store-operated calcium entry in Orai1/STIM1 stable cells; type: cell-based; parameters: key to Orai1/STIM1 (IC50, μmol): A, IC50 < 0.6 μM; B, IC50 = 0.6-1.2 μM; C, IC50 > 1.2 μM; — no fit; details: HEK-293 cells stably expressing human STIM1 and Orai1, inhibition of Peak-Basal fluorescence signal after calcium addition; for IC50: read-out: Orai1/STIM1 (IC50, μmol)
T1 construct: c-myc (C); expressed in transfected cells; host or cells: HEK-293 cells stably expressing recombinant human STIM1 and Orai1
Source text: (§1) Fluorescence-based assays are used for screening the compounds described herein, such as compounds of Formulas (I), (IA), (II), (IIA), (III), (IIIA), (IV), (IVA), (V), (VA), (VI), (VIA), (VII), (VIIA), (VIII), (VIIIA), (IX), (IXA), (X), (XI), (XIA), (XII), or (XIIA) which modulate intracellular calcium.
A. Fluorescence-Based Assay of Store-Operated Calcium Entry in Orai1/STIM1 Stable Cells.
Cells stably expressing recombinant human STIM1 and Orai1 are generated by transfecting a human Orai1 expression plasmid (pcDNA3.1-Orai1-cmyc) into HEK-293 cells stably overexpressing human STIM1 (Roos et al. 2005 JCB 169(3): 435-445). Colonies of cells stably expressing both STIM1 and Orai1 proteins are selected and then subcloned by limiting dilution. Cells were cultured at 37° C./6% CO2 in complete medium with 10% FBS and appropriate selection markers.
The day prior to performing the assay Orai1/STIM1 stable cells are plated in 50 μL of complete medium at 90-95% confluence in a 384 well plate. Cells are grown at 37° C./6% CO2 overnight. On the day of the assay, 1.5 μM fluo-4-AM (Invitrogen) in complete medium is added to the cells, which are then incubated for 1 hour at RT. Cells are washed once in Ca^2+-free HBSS (Hank's buffered saline solution) and 35 μl of Ca^2+-free HBSS is added to each well. Test compounds are added to wells in a 10 μL Ca^2+-free HBSS solution, prepared at 4.5× the desired final concentration, and incubated for 30 minutes at RT. The initial baseline fluorescence signal is then measured with a FLIPR^384 (Molecular Devices) plate reader. Calcium entry is initiated by adding 5 μl of 10×CaCl2 (10 mM) in HBSS, and changes in cellular fluorescence are measured with the FLIPR^384 plate reader. In each well, the magnitude of the fluorescence signal as a result of calcium entry into the cell is determined by calculating the difference between the peak fluorescence signal measured after calcium addition and the initial baseline fluorescence signal (designated Peak-Basal). IC50 values are typically calculated as the concentration that inhibited 50% of the Peak-Basal signal.

[2] = test system: RBL-2H3 cells; test: Fluorescence-based assay of store-operated calcium entry in RBL-2H3 cells; type: cell-based, rat; details: Rattus norvegicus, thapsigargin, inhibition of Upslope of fluorescence after calcium addition, read-out: RBL-2H3 (IC50, μmol)
Procedure: as §1
B. Fluorescence-Based Assay of Store-Operated Calcium Entry in RBL-2H3 Cells.
RBL-2H3 cells are obtained from ATCC and maintained in complete medium with 10% FBS at 37° C./6% CO2.
The day prior to performing the assay, RBL-2H3 cells are plated in 50 μL of complete medium in a 384 well plate. Cells are grown at 37° C./6% CO2 overnight and grow to 50-60% confluence by the next day. On the assay day, 1.5 µM Fluo-4-AM dye (Invitrogen) in complete medium is added and incubated for 1 hour at RT. Cells are washed twice in Ca^2+-free HBSS buffer and 35 μL Ca^2+-free HBSS buffer is added to each well. 10 μL of a test compound prepared in a Ca^2+-free HBSS solution at 4.5× of the desired concentration is added to a well and incubated for 5 minutes at RT. 10 μL of thapsigargin prepared in a Ca^2+-free HBSS solution at 5.5× of the desired concentration (5.5 uM) is added to each well and incubated for an additional 25 minutes. The initial baseline fluorescence signal is measured with a FLIPR^384 (Molecular Devices) plate reader. 5 μL of 12× calcium in HBSS (12 mM) is added and changes in cellular fluorescence are measured with the FLIPR^384 plate reader. In each well, the change in the fluorescent signal as a function of time due to calcium entry into the cell is determined by calculating the difference between the fluorescent signal measured 7 seconds after calcium addition and the initial baseline fluorescence signal at time zero (t=0). This parameter is designated Upslope. The IC50 value is calculated as the concentration at which 50% of the Upslope is inhibited.

T1 sequence (Q96D31 whole entry): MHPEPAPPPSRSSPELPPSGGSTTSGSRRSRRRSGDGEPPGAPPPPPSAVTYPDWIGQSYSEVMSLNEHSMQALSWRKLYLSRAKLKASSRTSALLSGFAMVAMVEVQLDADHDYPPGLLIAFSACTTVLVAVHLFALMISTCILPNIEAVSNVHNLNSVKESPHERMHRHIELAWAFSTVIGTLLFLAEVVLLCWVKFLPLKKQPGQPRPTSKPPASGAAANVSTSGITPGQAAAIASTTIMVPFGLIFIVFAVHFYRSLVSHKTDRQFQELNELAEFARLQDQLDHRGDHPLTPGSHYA

For `Fc1cccc(F)c1CNc1ccc(-c2cc3c(cc2Cl)OC(F)(F)O3)cn1` [Compound 2, 5-(6-chloro-2,2-difluorobenzo[d][1,3]dioxol-5-yl)-N-(2,6-difluorobenzyl)pyridin-2-amine], the IC50 [1] was 600 to 1200 nM and the IC50 [2] was < 600 nM.
With `Cc1cc2c(cc1-c1ccc(NCc3c(F)cccc3F)nc1)OC(F)(F)O2` [Compound 4, 5-(2,2-difluoro-6-methylbenzo[d][1,3]dioxol-5-yl)-N-(2,6-difluorobenzyl)pyridin-2-amine] the IC50 [1] was 600 to 1200 nM and the IC50 [2] was < 600 nM.
In the case of `Cc1cc2c(cc1-c1ccc(NCc3c(F)cccc3F)cn1)OC(F)(F)O2` [Compound 6, 6-(2,2-difluoro-6-methylbenzo[d][1,3]dioxol-5-yl)-N-(2,6-difluorobenzyl)pyridin-3-amine], the IC50 [1] is reported as < 600 nM and the IC50 [2] is reported as < 600 nM.
`Fc1cccc(CNc2ccc(-c3cc4c(cc3Cl)OC(F)(F)O4)cn2)c1Cl` [Compound 8, 5-(6-chloro-2,2-difluorobenzo[d][1,3]dioxol-5-yl)-N-(2-chloro-3-fluorobenzyl)pyridin-2-amine] was tested, and the IC50 [1] was > 1200 nM and the IC50 [2] was < 600 nM.
For `FC1(F)Oc2cc(Cl)c(-c3ccc(NCc4ccccc4Cl)nc3)cc2O1` [Compound 10, 5-(6-chloro-2,2-difluorobenzo[d][1,3]dioxol-5-yl)-N-(2-chlorobenzyl)pyridin-2-amine], the IC50 [1] was > 1200 nM and the IC50 [2] was < 600 nM.
With `FC1(F)Oc2cc(Cl)c(-c3ccc(NCc4ccccc4C(F)(F)F)nc3)cc2O1` [Compound 12, 5-(6-chloro-2,2-difluorobenzo[d][1,3]dioxol-5-yl)-N-(2-(trifluoromethyl)benzyl)pyridin-2-amine] the “Orai1/STIM1 (IC50, μmol)” value [1] was “—” and the IC50 [2] was < 600 nM.
In the case of `Fc1ccc(CNc2ccc(-c3cc4c(cc3Cl)OC(F)(F)O4)cn2)c(Cl)c1` [Compound 13], the IC50 [1] is reported as > 1200 nM and the IC50 [2] is reported as < 600 nM.
In the case of `COc1ccc(F)cc1CNc1ccc(-c2cc3c(cc2Cl)OC(F)(F)O3)cn1` [Compound 14], the “Orai1/STIM1 (IC50, μmol)” value [1] is reported as “—” and the IC50 [2] is reported as < 600 nM.
In the case of `COc1ccccc1CNc1ccc(-c2cc3c(cc2Cl)OC(F)(F)O3)cn1` [Compound 15], the IC50 [1] is reported as > 1200 nM and the IC50 [2] is reported as < 600 nM.
In the case of `Fc1cccc(CNc2ccc(-c3cc4c(cc3Cl)OC(F)(F)O4)cn2)c1` [Compound 16], the IC50 [1] is reported as 600 to 1200 nM and the IC50 [2] is reported as < 600 nM.
In the case of `Cc1cc2c(cc1-c1ccc(NCc3c(F)cccc3F)nc1)CCC2` [Compound 17], the IC50 [1] is reported as 600 to 1200 nM and the IC50 [2] is reported as < 600 nM.
`Cc1ccc(F)cc1CNc1ccc(-c2cc3c(cc2C)CCC3)cn1` [Compound 18] was tested, and the “Orai1/STIM1 (IC50, μmol)” value [1] was “—” and the IC50 [2] was < 600 nM.
`Cc1ccccc1CNc1ccc(-c2cc3c(cc2C)OC(F)(F)O3)cn1` [Compound 19] was tested, and the IC50 [1] was < 600 nM and the IC50 [2] was < 600 nM.
`Cc1cc2c(cc1-c1ccc(NCc3ccccc3Cl)nc1)OC(F)(F)O2` [Compound 20] was tested, and the IC50 [1] was > 1200 nM and the IC50 [2] was < 600 nM.
`Cc1cc2c(cc1-c1ccc(NCc3ccccc3F)nc1)OC(F)(F)O2` [Compound 21] was tested, and the IC50 [1] was < 600 nM and the IC50 [2] was < 600 nM.
For `Cc1cc2c(cc1-c1ccc(NCc3c(F)cccc3Cl)nc1)OC(F)(F)O2` [Compound 22], the IC50 [1] was > 1200 nM and the IC50 [2] was < 600 nM.
For `Cc1cc2c(cc1-c1cnc(NCc3c(F)cc(F)cc3F)cn1)OC(F)(F)O2` [Compound 23], the IC50 [1] was 600 to 1200 nM and the IC50 [2] was < 600 nM.
For `Cc1cc2c(cc1-c1ccc(NCc3c(F)cc(F)cc3F)nc1)OC(F)(F)O2` [Compound 24], the IC50 [2] was < 600 nM.
For `Cc1cc2c(cc1-c1ccc(NCc3c(F)ccc(F)c3F)nc1)OC(F)(F)O2` [Compound 25], the IC50 [2] was < 600 nM.
With `Cc1sc(C(F)(F)F)nc1-c1ccc(NCc2ccccc2F)nc1` [Compound 26] the IC50 [2] was < 600 nM.
`Cc1sc(C(F)(F)F)nc1-c1ccc(NCc2c(F)cc(F)cc2F)nc1` [Compound 27] was tested, and the IC50 [2] was < 600 nM.
With `Cc1cc2c(cc1-c1cnc(NCc3c(F)cccc3F)nc1)OC(F)(F)O2` [Compound 32, 5-(2,2-difluoro-6-methyl-1,3-benzodioxol-5-yl)-N-[(2,6-difluorophenyl)methyl]pyrimidin-2-amine] the IC50 [2] was < 600 nM.
With `Cc1cc2c(cc1-c1ccc(NCc3c(F)cccc3F)nc1)OCCO2` [Compound 37, N-(2,6-difluorobenzyl)-5-(7-methyl-2,3-dihydrobenzo[b][1,4]dioxin-6-yl)pyridin-2-amine] the IC50 [1] was 600 to 1200 nM and the IC50 [2] was < 600 nM.
With `Fc1cccc(F)c1CNc1ccc(-c2cc3c(cc2Cl)OCCO3)cn1` [Compound 42, 5-(7-chloro-2,3-dihydrobenzo[b][1,4]dioxin-6-yl)-N-(2,6-difluorobenzyl)pyridin-2-amine] the IC50 [1] was > 1200 nM and the IC50 [2] was < 600 nM.
In the case of `Fc1cccc(F)c1CNc1ccc(-c2nc3c(cc2Cl)OCCO3)cn1` [Compound 45, 5-(7-chloro-2,3-dihydro-[1,4]dioxino[2,3-b]pyridin-6-yl)-N-(2,6-difluorobenzyl)pyridin-2-amine], the IC50 [2] is reported as < 600 nM.
In the case of `Cc1cc(F)ccc1CNc1ccc(-c2nc3c(cc2Cl)OCCO3)cn1` [Compound 46], the IC50 [1] is reported as 600 to 1200 nM and the IC50 [2] is reported as < 600 nM.
`Cc1cc2c(cc1-c1cnc(OCc3c(F)cccc3F)nc1)OC(F)(F)O2` [Compound 62] gave an IC50 [2] of 600 to 1200 nM.
With `Cn1nc(C(F)(F)F)cc1-c1cnc(OCc2c(F)cccc2F)nc1` [Compound 63] the IC50 [2] was > 1200 nM.
In the case of `Cc1cc2c(cc1-c1ccc(OCc3c(F)cccc3F)nc1)OC(F)(F)O2` [Compound 66], the IC50 [2] is reported as < 600 nM.
`Cn1nc(C(F)(F)F)cc1-c1ccc(OCc2c(F)cccc2F)nc1` [Compound 67] gave an IC50 [2] of 600 to 1200 nM.
`Cn1nc(C(F)(F)F)cc1-c1ccc(NCc2c(F)cc(F)cc2F)cn1` [Compound 87] was tested, and the IC50 [2] was < 600 nM.
For `CCn1nc(C(F)(F)F)cc1-c1ccc(NCc2ccccc2F)cn1` [Compound 88], the IC50 [2] was < 600 nM.
For `CCn1nc(C(F)(F)F)cc1-c1ccc(NCc2c(F)cccc2F)cn1` [Compound 89], the IC50 [2] was < 600 nM.
`Cn1nc(C(F)(F)F)cc1-c1ncc(NCc2c(F)cccc2F)cc1F` [Compound 91] was tested, and the IC50 [2] was < 600 nM.
In the case of `Cn1nc(C(F)(F)F)cc1-c1cnc(NCc2c(F)cccc2F)nc1` [Compound 94, N-(2,6-difluorobenzyl)-5-(1-methyl-3-(trifluoromethyl)-1H-pyrazol-5-yl)pyrimidin-2-amine], the IC50 [2] is reported as < 600 nM.
For `Fc1ccc(C(F)(F)F)c(Oc2ccc(NCc3c(F)cccc3F)nc2)c1` [Compound 133, N-(2,6-difluorobenzyl)-5-(5-fluoro-2-(trifluoromethyl)phenoxy)pyridin-2-amine], the IC50 [2] was < 600 nM.
In the case of `CCc1ccccc1Oc1ccc(NCc2c(F)cc(F)cc2F)nc1` [Compound 136], the IC50 [2] is reported as > 1200 nM.
In the case of `CCc1ccccc1Oc1ccc(NCc2c(F)cccc2F)nc1` [Compound 137], the IC50 [2] is reported as > 1200 nM.
For `Fc1cc(F)c(CNc2ccc(Oc3cc(F)ccc3C(F)(F)F)cn2)c(F)c1` [Compound 138], the IC50 [2] was < 600 nM.
With `Fc1ccc(C(F)(F)F)c(Oc2ccc(NCc3c(F)cncc3F)nc2)c1` [Compound 139] the IC50 [2] was < 600 nM.
`Fc1cc(F)c(CNc2ccc(Oc3cc(C(F)(F)F)ccc3C(F)(F)F)cn2)c(F)c1` [Compound 140] was tested, and the IC50 [2] was 600 to 1200 nM.
In the case of `Fc1cccc(F)c1CNc1ccc(Oc2cc(C(F)(F)F)ccc2C(F)(F)F)cn1` [Compound 141], the IC50 [2] is reported as < 600 nM.
